Measurements reported in US12227488B2, “Small molecule degraders of Helios and methods of use” (DANA-FARBER CANCER INSTITUTE, INC., priority 2018, dated 2025).

What was measured:
IKZF1 = biological target: T1, IKZF1 (Homo sapiens, UniProt Q13422); test: Cellular degradation assay, eGFP-IKZF1Δ fusion with mCherry reporter in Flp-In 293 cells; format: cell-based; conditions: 5 h incubation, n=1
T1 construct: expressed in transfected cells; host or cells: Flp-In 293
Summary of the method: (§1)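 Flp-In 293 cells stably expressing eGFP-tagged degron fusions with P2A-mCherry reporter were treated with compound titrations (0.5% DMSO) for 5 hours. Imaging quantified GFP-positive/mCherry-positive cell fraction per well; DC50 at 5 h from nonlinear variable-slope fit.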

CRBN and Helios (IKZF2) = biological target: T2, CRBN and Helios (IKZF2) (Homo sapiens, UniProt Q96SW2+Q9UKS7); test: TR-FRET dimerization assay (CRBN-IKZF2 ternary complex formation); format: binding; conditions: n=1
T2 construct: His (N); Strep (N)
Summary of the method: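 BODIPY-labeled DDB1ΔB-CRBN and in vitro biotinylated IKZF2 were treated with increasing compound concentrations plus tracer Terbium-Streptavidin and incubated 15 min at rt. Recruitment was quantified as the 520/490 nm TR-FRET ratio; values are single measurements (n=1), each averaged from at least three technical replicates.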

GSPT1 = GSPT1 (Homo sapiens, UniProt P15170+Q96SW2); test: Cellular degradation assay, eGFP-GSPT1 fusion with mCherry reporter in Flp-In 293 cells; format: cell-based; design: expressed in transfected cells; host or cells: Flp-In 293; conditions: 5 h incubation, n=1
Experimental: IKZF1Δ, IKZF2Δ, GSPT1 and SALL4 ZnF1-2 were subcloned into mammalian pcDNA5/FRT Vector (Ampicillin and Hygromycin B resistant) modified to contain MCS-eGFP-P2A-mCherry. […] Following 2-3 passage cycle, FACS (FACSAria™ II, BD) was used to enrich for cells expressing eGFP and mCherry. Cells stably expressing the IKZF1Δ, IKZF2Δ, GSPT1 or SALL4 Znf1-2 GFP fusions with mCherry reporter were seeded at 30-50% confluency in 384-well plates with 50 μL FluoroBrite™ DMEM media (Thermo Fisher Scientific, A18967) containing 10% FBS per well a day before compound treatment. Compound titrations were dispensed using a D300e Digital Dispenser (HP), normalized to 0.5% DMSO, and incubated with cells for 5 hours.
The resulting images were analyzed using CellProfiler™. A series of image analysis steps (‘image analysis pipeline’) was constructed. First, the red and green channels were aligned and cropped to target the middle of each well (to avoid analysis of heavily clumped cells at the edges), and a background illumination function was calculated for both red and green channels of each well individually and subtracted to correct for illumination variations across the 384-well plate from various sources of error. An additional step was then applied to the green channel to suppress the analysis of large auto fluorescent artifacts and enhance the analysis of cell specific fluorescence by way of selecting for objects under a given size, 30 A.U., and with a given shape, speckles. mCherry-positive cells were then identified in the red channel filtering for objects between 8-60 pixels in diameter and using intensity to distinguish between clumped objects. The green channel was then segmented into GFP positive and negative areas and objects were labeled as GFP positive if at least 40% of it overlapped with a GFP positive area. The fraction of GFP-positive cells/mCherry-positive cells in each well was then calculated, and the green and red images were rescaled for visualization.
The degradation assay was performed as described above. […] Degradation was measured after 5 h of compound treatment and the concentrations that lead to half degradation at 5 h (DC50,5 h) were calculated using the nonlinear fit variable slope model (GraphPad Software).

IKZF2 = test: Cellular degradation assay, eGFP-IKZF2Δ fusion with mCherry reporter in Flp-In 293 cells; format: cell-based; conditions: 5 h incubation, n=1
Summary of the method: as §1

[1] = compound concentration 2.00E−05
[2] = compound concentration 2.00E−06
[3] = compound concentration 2.00E−07
[4] = compound concentration 6.6667E−05
[5] = compound concentration 6.6667E−06
[6] = compound concentration 6.6667E−07 (667 nM)

T2 sequence (Q96SW2 whole entry): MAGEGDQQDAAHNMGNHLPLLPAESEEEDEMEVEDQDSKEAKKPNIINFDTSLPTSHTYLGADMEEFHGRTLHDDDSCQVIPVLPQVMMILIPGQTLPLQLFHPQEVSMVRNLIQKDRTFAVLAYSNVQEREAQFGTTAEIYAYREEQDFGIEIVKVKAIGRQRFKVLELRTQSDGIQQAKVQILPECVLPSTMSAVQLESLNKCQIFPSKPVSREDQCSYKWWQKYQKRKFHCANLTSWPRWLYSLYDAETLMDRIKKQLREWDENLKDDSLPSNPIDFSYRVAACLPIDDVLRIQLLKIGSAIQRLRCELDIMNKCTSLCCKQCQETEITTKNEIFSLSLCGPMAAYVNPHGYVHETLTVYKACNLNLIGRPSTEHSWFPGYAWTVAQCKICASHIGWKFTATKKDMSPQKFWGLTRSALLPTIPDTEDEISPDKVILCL
T2 sequence (Q9UKS7 whole entry): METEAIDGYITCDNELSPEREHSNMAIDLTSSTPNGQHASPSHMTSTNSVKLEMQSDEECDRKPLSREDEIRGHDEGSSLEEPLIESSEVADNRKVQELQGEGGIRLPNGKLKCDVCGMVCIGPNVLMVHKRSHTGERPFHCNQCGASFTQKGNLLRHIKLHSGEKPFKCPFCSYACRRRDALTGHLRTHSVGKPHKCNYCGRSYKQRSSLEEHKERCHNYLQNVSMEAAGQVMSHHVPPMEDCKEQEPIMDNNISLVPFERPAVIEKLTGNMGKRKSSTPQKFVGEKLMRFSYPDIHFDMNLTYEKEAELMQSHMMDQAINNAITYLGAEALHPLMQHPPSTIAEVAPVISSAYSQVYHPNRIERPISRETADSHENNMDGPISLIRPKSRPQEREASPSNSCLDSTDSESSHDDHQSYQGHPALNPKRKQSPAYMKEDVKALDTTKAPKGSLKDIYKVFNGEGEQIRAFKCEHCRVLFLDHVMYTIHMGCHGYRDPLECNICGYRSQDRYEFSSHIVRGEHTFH
Chain of GSPT1 (P15170 whole entry, the tested form may be a part): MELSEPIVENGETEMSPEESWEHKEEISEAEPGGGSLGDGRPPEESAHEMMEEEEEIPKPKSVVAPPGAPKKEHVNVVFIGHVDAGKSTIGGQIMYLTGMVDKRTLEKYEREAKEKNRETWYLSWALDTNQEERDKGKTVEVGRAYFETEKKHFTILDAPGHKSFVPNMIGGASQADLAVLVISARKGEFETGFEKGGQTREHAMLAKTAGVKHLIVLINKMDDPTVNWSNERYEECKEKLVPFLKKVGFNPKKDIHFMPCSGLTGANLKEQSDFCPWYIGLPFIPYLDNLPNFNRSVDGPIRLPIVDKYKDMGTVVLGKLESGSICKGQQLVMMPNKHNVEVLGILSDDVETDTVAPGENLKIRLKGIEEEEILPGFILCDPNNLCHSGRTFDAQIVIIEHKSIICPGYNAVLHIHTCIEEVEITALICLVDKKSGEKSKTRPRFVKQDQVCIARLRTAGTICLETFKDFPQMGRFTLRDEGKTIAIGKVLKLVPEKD
Chain of GSPT1 (Q96SW2 whole entry, the tested form may be a part): as the sequence (Q96SW2 whole entry) above
Chain of GSPT1 (Q16531 whole entry partner, the tested form may be a part): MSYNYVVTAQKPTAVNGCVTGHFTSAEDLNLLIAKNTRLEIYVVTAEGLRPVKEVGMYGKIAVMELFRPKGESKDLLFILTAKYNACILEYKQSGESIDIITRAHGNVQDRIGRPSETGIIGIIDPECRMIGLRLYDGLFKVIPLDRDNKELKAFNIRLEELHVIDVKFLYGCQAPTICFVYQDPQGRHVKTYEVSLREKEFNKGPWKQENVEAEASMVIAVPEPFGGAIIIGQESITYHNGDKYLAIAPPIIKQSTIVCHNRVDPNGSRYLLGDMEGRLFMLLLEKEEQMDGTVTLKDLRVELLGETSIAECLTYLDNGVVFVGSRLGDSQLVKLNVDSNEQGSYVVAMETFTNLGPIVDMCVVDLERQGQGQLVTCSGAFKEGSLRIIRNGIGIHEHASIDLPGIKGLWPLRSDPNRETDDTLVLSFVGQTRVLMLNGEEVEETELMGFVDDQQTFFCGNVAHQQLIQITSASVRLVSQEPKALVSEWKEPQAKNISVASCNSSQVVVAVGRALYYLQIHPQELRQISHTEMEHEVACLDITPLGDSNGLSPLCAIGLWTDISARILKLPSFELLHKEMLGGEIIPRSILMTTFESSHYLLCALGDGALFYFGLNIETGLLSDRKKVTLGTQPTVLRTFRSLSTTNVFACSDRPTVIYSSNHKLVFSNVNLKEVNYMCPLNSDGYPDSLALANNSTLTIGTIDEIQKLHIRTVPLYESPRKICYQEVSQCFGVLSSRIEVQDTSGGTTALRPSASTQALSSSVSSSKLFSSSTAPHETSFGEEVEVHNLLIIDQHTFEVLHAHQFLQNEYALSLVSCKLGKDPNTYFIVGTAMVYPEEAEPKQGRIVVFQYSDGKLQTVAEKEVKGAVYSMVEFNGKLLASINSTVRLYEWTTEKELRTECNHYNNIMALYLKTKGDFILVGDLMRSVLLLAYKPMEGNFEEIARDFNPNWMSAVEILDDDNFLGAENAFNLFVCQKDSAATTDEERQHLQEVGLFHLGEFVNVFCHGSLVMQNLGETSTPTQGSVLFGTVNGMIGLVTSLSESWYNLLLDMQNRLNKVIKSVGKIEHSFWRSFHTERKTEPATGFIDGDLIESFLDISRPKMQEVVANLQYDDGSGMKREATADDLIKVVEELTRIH
T1 sequence (Q13422 83-213 isoform Q13422-7 limits assumed): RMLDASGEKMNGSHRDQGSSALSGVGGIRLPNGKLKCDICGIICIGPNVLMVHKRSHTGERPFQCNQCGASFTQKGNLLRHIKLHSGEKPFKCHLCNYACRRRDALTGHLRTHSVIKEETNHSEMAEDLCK
T1 sequence (Q96SW2 whole entry partner, the tested form may be a part): as the sequence (Q96SW2 whole entry) above
T1 sequence (Q16531 2-1140 partner limits assumed): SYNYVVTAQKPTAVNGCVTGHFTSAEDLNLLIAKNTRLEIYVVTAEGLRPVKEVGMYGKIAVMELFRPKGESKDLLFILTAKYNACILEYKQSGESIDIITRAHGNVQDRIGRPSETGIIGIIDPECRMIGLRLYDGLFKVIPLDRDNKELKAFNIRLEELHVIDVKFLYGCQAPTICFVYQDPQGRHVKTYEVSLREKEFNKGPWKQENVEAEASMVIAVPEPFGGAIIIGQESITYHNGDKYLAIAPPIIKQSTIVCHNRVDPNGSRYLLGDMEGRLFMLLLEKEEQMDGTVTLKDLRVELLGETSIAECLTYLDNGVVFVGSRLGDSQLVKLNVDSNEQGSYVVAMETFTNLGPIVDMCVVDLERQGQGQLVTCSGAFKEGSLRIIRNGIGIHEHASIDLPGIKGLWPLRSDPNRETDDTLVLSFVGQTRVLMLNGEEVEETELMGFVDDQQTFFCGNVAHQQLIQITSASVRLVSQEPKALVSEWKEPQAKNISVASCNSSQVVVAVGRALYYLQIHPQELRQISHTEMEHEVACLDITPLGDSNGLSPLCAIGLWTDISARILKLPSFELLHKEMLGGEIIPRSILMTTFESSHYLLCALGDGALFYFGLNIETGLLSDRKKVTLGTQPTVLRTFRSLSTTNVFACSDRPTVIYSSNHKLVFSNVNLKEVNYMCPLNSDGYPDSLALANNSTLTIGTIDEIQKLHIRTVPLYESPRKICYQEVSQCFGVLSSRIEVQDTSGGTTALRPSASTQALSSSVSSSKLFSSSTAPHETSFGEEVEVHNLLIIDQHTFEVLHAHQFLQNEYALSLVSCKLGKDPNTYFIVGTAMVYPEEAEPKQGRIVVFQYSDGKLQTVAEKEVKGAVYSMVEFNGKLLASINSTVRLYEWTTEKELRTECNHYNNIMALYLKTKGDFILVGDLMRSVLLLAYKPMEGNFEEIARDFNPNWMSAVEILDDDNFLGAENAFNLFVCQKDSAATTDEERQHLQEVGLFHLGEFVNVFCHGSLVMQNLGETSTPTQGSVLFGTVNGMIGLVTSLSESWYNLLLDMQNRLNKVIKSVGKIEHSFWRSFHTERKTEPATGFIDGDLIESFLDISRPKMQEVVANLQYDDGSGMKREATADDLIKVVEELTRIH

SMILES	IKZF1 GFP/RFP Relative Abundance (IKZF1; [1])	IKZF1 GFP/RFP Relative Abundance (IKZF1; [2])	IKZF1 GFP/RFP Relative Abundance (IKZF1; [3])	TR-FRET-IKZF2 (Normalized to CC-885) (CRBN and Helios (IKZF2); [4])	TR-FRET-IKZF2 (Normalized to CC-885) (CRBN and Helios (IKZF2); [5])	TR-FRET-IKZF2 (Normalized to CC-885) (CRBN and Helios (IKZF2); [6])	GSPT1 GFP/RFP Relative Abundance (GSPT1; [1])	GSPT1 GFP/RFP Relative Abundance (GSPT1; [2])	GSPT1 GFP/RFP Relative Abundance (GSPT1; [3])	IKZF2 GFP/RFP Relative Abundance (IKZF2; [1])	IKZF2 GFP/RFP Relative Abundance (IKZF2; [2])	IKZF2 GFP/RFP Relative Abundance (IKZF2; [3])
Cc1ccc(NC(=O)Oc2cccc(NC3=CC(=O)N(C4CCC(=O)NC4=O)C3=O)c2)cc1Cl (stereo not drawn) [Compound 51, 3-((1-(2,6-dioxopiperidin-3-yl)-2,5-dioxo-2,5-dihydro-1H-pyrrol-3-yl)amino)phenyl (3-chloro-4-methylphenyl)carbamate]	0.861	1.001	1.026	0.037	0.032	0.017	1.680	0.829	0.775	1.083	1.044	1.024
Cc1ccc(NC(=O)N(C)Cc2cccc(NC3=CC(=O)N(C4CCC(=O)NC4=O)C3=O)c2)cc1Cl (stereo not drawn) [Compound 52, 3-(3-chloro-4-methylphenyl)-1-(3-((1-(2,6-dioxopiperidin-3-yl)-2,5-dioxo-2,5-dihydro-1H-pyrrol-3-yl)amino)benzyl)-1-methylurea]	0.103	0.092	0.080	1.559	1.367	1.205	0.308	0.815	0.787	0.058	0.059	0.062
Cc1ccc(NC(=O)CCc2cccc(NC3=CC(=O)N(C4CCC(=O)NC4=O)C3=O)c2)cc1Cl (stereo not drawn) [Compound 53, N-(3-chloro-4-methylphenyl)-3-(3-((1-(2,6-dioxopiperidin-3-yl)-2,5-dioxo-2,5-dihydro-1H-pyrrol-3-yl)amino)phenyl)propanamide]	0.110	0.077	0.078	1.708	1.574	1.455	0.232	0.982	0.931	0.030	0.022	0.029
Cc1ccc(NC(=O)Nc2cccc(NC3=CC(=O)N(C4CCC(=O)NC4=O)C3=O)c2)cc1C (stereo not drawn) [Compound 55, 1-(3,4-dimethylphenyl)-3-(3-((1-(2,6-dioxopiperidin-3-yl)-2,5-dioxo-2,5-dihydro-1H-pyrrol-3-yl)amino)phenyl)urea]	0.471	0.212	0.251	0.523	0.430	0.321	0.096	0.153	0.180	1.029	0.936	0.938
O=C1CCC(N2C(=O)C=C(Nc3cccc(NC(=O)Nc4ccc(Cl)c(Cl)c4)c3)C2=O)C(=O)N1 (stereo not drawn) [Compound 56, 1-(3,4-dichlorophenyl)-3-(3-((1-(2,6-dioxopiperidin-3-yl)-2,5-dioxo-2,5-dihydro-1H-pyrrol-3-yl)amino)phenyl)urea]	1.190	0.319	0.403	0.383	0.282	0.187	1.572	0.074	0.112	1.092	1.025	0.983
Cc1ccc(NC(=O)/C=C/c2cccc(NC3=CC(=O)N(C4CCC(=O)NC4=O)C3=O)c2)cc1Cl (stereo not drawn) [Compound 57, (E)-N-(3-chloro-4-methylphenyl)-3-(3-((1-(2,6-dioxopiperidin-3-yl)-2,5-dioxo-2,5-dihydro-1H-pyrrol-3-yl)amino)phenyl)acrylamide]	0.502	0.214	0.305	0.530	0.365	0.282	0.385	0.559	0.779	0.843	0.622	0.656
Cc1ccc(NC(=O)NCc2cccc(NC3=CC(=O)N(C4CCC(=O)NC4=O)C3=O)c2)cc1C (stereo not drawn) [Compound 58, 1-(3,4-dimethylphenyl)-3-(3-((1-(2,6-dioxopiperidin-3-yl)-2,5-dioxo-2,5-dihydro-1H-pyrrol-3-yl)amino)benzyl)urea]	0.075	0.070	0.074	1.184	1.061	0.927	0.421	0.603	0.594	0.064	0.077	0.122
